Measured values reported in PubChem BioAssay AID2305 (GlaxoSmithKline (GSK), 2010).

What follows are compounds tested on P. falciparum 3D7 growth, pLDH absorbance (assay: P. falciparum 3D7 growth inhibition, dose response, strain 3D7 (AID 2305)).

Question: For `Oc1ccc2[nH]cc(C3CCN(CCCCCCCCCN4CCC(c5c[nH]c6ccc(O)cc56)CC4)CC3)c2c1`, which IC50 is on record?
Answer: 310 nM

Question: How did the IC50 turn out when `Cc1cccc2[nH]c(-c3cccc(-c4cccc(NC(=O)c5cn(C)c(=O)n5C)c4)c3)nc12` was run?
Answer: 500 nM

Question: `Fc1ccc(Nc2n[nH]c(CNC3CCN(Cc4ccc(Cl)c(Cl)c4)CC3)n2)cc1` was tested. Which IC50 did it give?
Answer: 1380 nM

Question: How did the IC50 turn out when `Cc1cc(C)cc(OCC(O)CN(Cc2cc(Cl)cc(Cl)c2)C(=O)Nc2ccccc2Cl)c1` (centres undefined) was run?
Answer: 940 nM

Question: Which IC50 does the source give for `Cc1cccc2[nH]c(-c3cccc(-c4ccc(NC(=O)N[C@@H]5C[C@H]5c5ccccc5)cc4)c3)nc12` here?
Answer: 720 nM

Question: With `Cc1cc(N[C@@H](Cc2ccccc2)C(=O)Nc2ccccc2)nc(Nc2ccccc2)n1` as the compound, how does the IC50 read?
Answer: 1010 nM

Question: `CC1CCN(c2nc(C(=O)NCCc3ccc(Cl)c(Cl)c3)c(C(C)C)s2)CC1` was tested. Which IC50 did it give?
Answer: 1930 nM

Question: For `CN(CCCN(C)c1cc(NC(=O)c2ccc(F)cc2)ccn1)Cc1cccc(F)c1`, which IC50 is on record?
Answer: 1220 nM

Question: Which IC50 does the source give for `O=C(NCCc1ccccc1)N(Cc1ccccc1-c1cccc(CNC2CCCC2)c1)C1CCN(Cc2ccccc2)CC1` here?
Answer: 830 nM

Question: How did the IC50 turn out when `CC(=O)N[C@H](C(=O)Nc1ccc(-c2ccc(-c3nc4ccc(C(F)(F)F)cc4[nH]3)cc2)cc1)C(C)C` was run?
Answer: 890 nM

Question: `CC(C)CN1C(=O)c2ccc(C(=O)Nc3nccs3)cc2C1=O` was tested. Which IC50 did it give?
Answer: 970 nM

Question: With `CCN1CCN(c2cc(C)c3cc(NC(=O)c4cncc(Br)c4)ccc3n2)CC1` as the compound, how does the IC50 read?
Answer: 660 nM

Question: Which IC50 does the source give for `Cc1cccc2[nH]c(-c3ccc(-c4cccc(NC(=O)NCc5cccc(F)c5)c4)cc3)nc12` here?
Answer: 850 nM

Question: With `N#Cc1c(N)nc(SCC(=O)Nc2cc(C(F)(F)F)ccc2Cl)c(C#N)c1-c1cccs1` as the compound, how does the IC50 read?
Answer: 740 nM

Question: How did the IC50 turn out when `Cc1cc(=O)[nH]c2cc(Nc3ccnc(Nc4cccc(C(N)=O)c4)n3)ccc12` was run?
Answer: 1520 nM

Question: With `CC(=O)c1cccc(S(=O)(=O)NCCCNc2nc3cc(C)cc(C)c3cc2C#N)c1` as the compound, how does the IC50 read?
Answer: 910 nM

Question: `O=C(/C=C/c1ccc(Cl)c(Cl)c1)NCCCCCN1CCC(n2c(=O)[nH]c3ccccc32)CC1` was tested. Which IC50 did it give?
Answer: 870 nM

Question: With `CCOc1cc(C)c(C2CCN(CCCCNC(=O)c3ccc(NC(=O)c4ccc(Cl)cc4)cc3)CC2)cc1C` as the compound, how does the IC50 read?
Answer: 740 nM

Question: How did the IC50 turn out when `CCn1c(C=Cc2cc(Br)ccc2O)nc2ccccc2c1=O` was run?
Answer: 650 nM

Question: `c1cc(CNCC2CCCO2)cc(-c2csc(-c3nc4ccccc4[nH]3)c2)c1` (centres undefined) was tested. Which IC50 did it give?
Answer: 1040 nM

Question: With `O=C(Nc1cccc(C(F)(F)F)c1)c1ccc(S(=O)(=O)NC2CCN(CC3CCCCC3)CC2)cc1` as the compound, how does the IC50 read?
Answer: 1160 nM

Question: For `Nc1ncc(-c2ccc(F)cc2)c2ccc(-c3cccc(F)c3)cc12`, which IC50 is on record?
Answer: 230 nM

Question: Which IC50 does the source give for `COc1ccc(Cc2nc3c(n2C(C)=O)SC(c2ccc(Cl)c(Cl)c2)=NN3C(C)=O)cc1` here?
Answer: 810 nM

Question: With `OCc1ccc2nc3c(cc2c1)-c1cccc2cccc-3c12` as the compound, how does the IC50 read?
Answer: 660 nM

Question: `CN1CCCN(Cc2cccc(-c3ccc(NC(=O)c4cccc(C#N)c4)cc3)c2)CC1` was tested. Which IC50 did it give?
Answer: 720 nM

Question: How did the IC50 turn out when `CN(C(=O)c1cc2c(-c3cncnc3)cccc2[nH]1)c1ccccc1` was run?
Answer: 630 nM

Question: `CC(C)(C)CN1C(=O)C(c2ccccc2)(c2ccccc2)N=C1N` was tested. Which IC50 did it give?
Answer: 520 nM

Question: With `Cc1cccc2[nH]c(-c3ccc(-c4ccc(CN5CCCC(O)C5)cc4)cc3)nc12` (centres undefined) as the compound, how does the IC50 read?
Answer: 860 nM

Question: For `CN1CC[C@@H](Oc2cc(Nc3nc(-c4ccc(C#N)cc4)cs3)ccc2Cl)C1`, which IC50 is on record?
Answer: 820 nM

Question: How did the IC50 turn out when `Nc1cccc(CNCc2ccc(-c3ccc(-c4nc5ccc(F)cc5[nH]4)s3)cc2)c1` was run?
Answer: 990 nM

Question: `CCS(=O)(=O)Nc1ccc2[nH]c(O)c(C(=Nc3ccc(CN4CCCCC4)cc3)c3ccccc3)c2c1` was tested. Which IC50 did it give?
Answer: 60 nM

Question: `COc1ccc2nc(C)cc(NN=Cc3cccc(F)c3)c2c1` was tested. Which IC50 did it give?
Answer: 290 nM

Question: `Cc1cc(NC(=O)[C@H](CC2CCCCC2)Nc2ccc(C#N)c3ccccc23)ccc1F` was tested. Which IC50 did it give?
Answer: 680 nM

Question: Which IC50 does the source give for `COc1cc2c(cc1OC)CC(NCc1ccc(-c3ccc4nc[nH]c4c3)cc1)C2` here?
Answer: 850 nM

Question: How did the IC50 turn out when `COc1ccccc1C1CCN(C2CCC(NC(=O)c3cc(-c4ccc(Cl)cc4)cs3)CC2)CC1` (centres undefined) was run?
Answer: 380 nM

Question: How did the IC50 turn out when `CCc1cc2c(Sc3nnc(N)s3)ncnc2s1` was run?
Answer: 660 nM

Question: With `O=c1[nH]c(Cc2ccccc2)nc2ccc(Cl)cc12` as the compound, how does the IC50 read?
Answer: 880 nM

Question: How did the IC50 turn out when `O=C(NC1CCC(CN2CCC(c3c[nH]c4ccccc34)CC2)CC1)NC12CC3CC(CC(C3)C1)C2` (centres undefined) was run?
Answer: 1060 nM

Question: With `CCCCCCCCc1[nH]c(C)c(Br)c(=O)c1Br` as the compound, how does the IC50 read?
Answer: 180 nM
